Where “and” joins values, the source holds several entries; their conditions need not be identical. Equal values may be shown once.
Experiments:
[1] = test system: guinea pig papillary muscles; assay: Electrophysiological studies: transmembrane action potentials of isolated papillary muscle; type: cell-based, Guinea pigs; settings: for resting membrane potential, action potential amplitude, Vmax: even at the highest concentrations
Procedure: Guinea pigs (300-350 g) were anesthetized by intravenous injection of sodium pentobarbital (60 mg/kg). After thoracotomy the heart was rapidly excised and placed in oxygenated Tyrode solution. Papillary muscles were removed from the right ventricle. Preparations were then fixed to the silastic base of a 5 ml organ bath and superfused with oxygenated Tyrode solution maintained at 37 ± 1 °C.
The solution was equilibrated with a gas mixture of 95% O2 - 5% CO2.
After a stabilisation period (at least 1 h), transmembrane action potentials were recorded with conventional microelectrodes (10 MOhm) connected to a high input impedance amplifier (BIOLOGIC VF 180). External stimuli were delivered to the preparation with bipolar platinum electrodes placed at one end of the muscle. The pulse duration was 1 ms and the amplitude was twice threshold. The basic cycle length was 1000 ms (PULSAR 6i stimulator). The signals were monitored on a storage oscilloscope (GOULD 1602) and simultaneously recorded on a digital tape recorder (BIOLOGIC DTR 1200) for further analysis.
Measurements were made of resting membrane potential (RMP), action potential amplitude (APA) and action potential durations at 30, 50 and 90% repolarization (APD30, APD50 and APD90 respectively). Recordings were made after 30 min of equilibration for each concentration. Only recordings in which the same impalement was maintained throughout the entire experiment were used for analysis.

[2] = test system: Ischemia and reperfusion-induced arrhythmias; assay: Ischemia and reperfusion-induced arrhythmias (ventricular fibrillation) in anesthetized dogs; type: in vivo, dog
Procedure: Surgical preparation. Dogs were anesthetized using 30 mg/kg i.v. sodium pentobarbital. […] A catheter was inserted into the right femoral artery to measure the systemic arterial pressure (Statham P23 ID, GOULD). A 5F Millar microtip catheter pressure transducer was inserted into the left carotid artery and advanced into the left ventricular lumen to measure the left ventricular pressure (LVP) and its first positive derivative dP/dt. Peripheral venous and arterial catheters were placed for drug administration and blood samples collection, respectively. Electrocardiographic variables were measured via a standard lead II ECG. […] After a left thoracotomy through the fifth intercostal space, the heart was suspended in a pericardial cradle. The left circumflex coronary artery (LCX) was isolated close to its origin and a silk suture was placed around it for later occlusion.
Experimental time course. After placement of the silk strand the animal was allowed to stabilize for at least 10 minutes. Arterial blood gases were determined (ABL500, Radiometer), and ventilation was adjusted to maintain these parameters within the normal range. Then, intravenous administration of the drug was performed in 10 minutes. After the drug administration, hemodynamic and ECG variables were again measured and the LCX was occluded for 45 minutes by placing a microclamp. Reperfusion performed by removing the clamp was continued for 5 hours.
Measurements. Ventricular arrhythmias were analyzed during the preischemic period, during ischemia and during the first hour of reperfusion. Ventricular premature beats (VPBs) were defined as identifiable premature QRS complexes and salvos as more than 2 consecutive VPBs. Ventricular tachycardia was defined as 4 or more consecutive VPBs. Ventricular fibrillation (VF) was diagnosed when total irregularity of rhythm occurred and when a rate could no longer be measured. If defibrillation was required a DC shock was given.

anesthetized dog = assay: Hemodynamic and electrocardiographic parameters in anesthetized dogs (before and during LCX occlusion/reperfusion); type: in vivo; settings: for QTc: Bazett
Procedure: Surgical preparation. Dogs were anesthetized using 30 mg/kg i.v. sodium pentobarbital. […] A catheter was inserted into the right femoral artery to measure the systemic arterial pressure (Statham P23 ID, GOULD). A 5F Millar microtip catheter pressure transducer was inserted into the left carotid artery and advanced into the left ventricular lumen to measure the left ventricular pressure (LVP) and its first positive derivative dP/dt. Peripheral venous and arterial catheters were placed for drug administration and blood samples collection, respectively. Electrocardiographic variables were measured via a standard lead II ECG. For determination of the Q-T interval of ECG a CV5RL precordial lead of ECG was measured as previously described (Koerner et al.,J.,Cardiovascular Pharmacol. […] After a left thoracotomy through the fifth intercostal space, the heart was suspended in a pericardial cradle. The left circumflex coronary artery (LCX) was isolated close to its origin and a silk suture was placed around it for later occlusion. Experimental time course. After placement of the silk strand the animal was allowed to stabilize for at least 10 minutes. Arterial blood gases were determined (ABL500, Radiometer), and ventilation was adjusted to maintain these parameters within the normal range. Then, intravenous administration of the drug was performed in 10 minutes. After the drug administration, hemodynamic and ECG variables were again measured and the LCX was occluded for 45 minutes by placing a microclamp. Reperfusion performed by removing the clamp was continued for 5 hours. Arterial blood pressure and ECG were recorded continuously on a Gould polyrecorder. Signals were digitised by an A/D convertor and analysed on an IBM computer using an interactive software (Clodia, Clod sarl) and then transfered to a VAX 4000-200 computer (Digital Equipment Corporation, Maynard, MA) for further analysis. Heart rate was calculated from the ECG. […] QTc = (QT interval in msec) / (R-R interval in sec)^½.

[3] = preischemic period, Compound I 0.3 and 1.0 mg/kg, d-sotalol 3.0 and 10.0 mg/kg

`COc1ccc(CCN(C)CCCN(C(=O)c2ccc([N+](=O)[O-])cc2)c2ccc(OC)c(OC)c2)cc1OC` [Compound I, (N-[3,4-dimethoxy-phenyl]-N-3-[N'-2-(3,4-dimethoxyphenyl)-ethyl-N'-methylamino]propyl)-N'-4-nitrobenzamide] was tested, and the Overshoot ([1]; 0.3 µM) was 36 ± 1 mV, the Vmax ([1]; 0.3 µM) was 168 ± 14 V/sec and the APD50 ([1]; 0.3 µM, action potential duration at 50 % of the repolarization) was 162 ± 6 ms. For the same molecule, the RMP ([1]; 0.3 µM, resting membrane potential) was -92 ± 1 mV, the APD50 ([1]; 1 µM) was 170 ± 5 ms and the Overshoot ([1]; 1 µM) was 35 ± 1 mV. It also gave an RMP ([1]; 1 µM) of -92 ± 1 mV, a Vmax ([1]; 1 µM) of 168 ± 14 V/sec and an APD50 ([1]; 3 µM) of 163 ± 5 ms. The Overshoot ([1]; 3 µM) was 34 ± 1 mV, the RMP ([1]; 3 µM) was -92 ± 1 mV and the Vmax ([1]; 3 µM) was 169 ± 14 V/sec. It also gave an APD50 ([1]; 10 µM) of 139 ± 6 ms, an Overshoot ([1]; 10 µM) of 33 ± 2 mV and an RMP ([1]; 10 µM) of -91 ± 1 mV. The Vmax ([1]; 10 µM) was 167 ± 15 V/sec, the “resting membrane potential, action potential amplitude, Vmax” value [1] was “did not change” and the action potential duration ([1]; prolongation at 0.3 and 1 µM, no further increase at 3 µM, reduced at 10 µM) was “biphasic effect”. For the same molecule, the “incidence of ventricular fibrillation” value ([2]; 0.3 mg/kg, 45 min ischemia and first 60 min of reperfusion, control dogs 66.7 %) was 33.3%, the “incidence of ventricular fibrillation” value ([2]; 1.0 mg/kg, 45 min ischemia and first 60 min of reperfusion, control dogs 66.7 %, p <0.05) was 14.3% and the “ventricular fibrillation during ischemia” value ([2]; 0.3 or 1.0 mg/kg, ischemic period) was “none of the dogs treated with Compound I experienced ventricular fibrillation during ischemia”. For the same molecule, the PR (anesthetized dog; dog, in vivo) was 112 ± 4 ms and 120 ± 6 ms and 115 ± 7 ms and 116 ± 3 ms and 113 ± 3 ms, the heart rate (anesthetized dog; dog, in vivo) was “reduced heart rate in a dose-dependent manner” and the “mean arterial and left ventricular pressure” value (anesthetized dog; dog, in vivo) was “only minimal changes”. For the same molecule, the pressure rate product (anesthetized dog; dog, in vivo) was “reduced the pressure rate product”.
With `CC(C)NCC(O)c1ccc(NS(C)(=O)=O)cc1` (stereo not drawn) [d-Sotalol] the APA ([1]; 3 µM) was 127 ± 1 mV, the APD30 ([1]; 3 µM) was 93 ± 5 ms and the APD50 ([1]; 3 µM) was 136 ± 5 ms. The APD90 ([1]; 3 µM) was 171 ± 5 ms, the Overshoot ([1]; 3 µM) was 33 ± 1 mV and the RMP ([1]; 3 µM) was -95 ± 1 mV. The Vmax ([1]; 3 µM) was 199 ± 30 V/sec, the APA ([1]; 10 µM) was 128 ± 1 mV and the APD30 ([1]; 10 µM) was 101 ± 8 ms. For the same molecule, the APD50 ([1]; 10 µM) was 151 ± 7 ms, the APD90 ([1]; 10 µM) was 190 ± 7 ms and the Overshoot ([1]; 10 µM) was 34 ± 1 mV. It also gave an RMP ([1]; 10 µM) of -94 ± 1 mV, a Vmax ([1]; 10 µM) of 209 ± 32 V/sec and an APA ([1]; 30 µM) of 127 ± 1 mV. The APD30 ([1]; 30 µM) was 104 ± 7 ms, the APD50 ([1]; 30 µM) was 160 ± 6 ms and the APD90 ([1]; 30 µM) was 204 ± 6 ms. For the same molecule, the Overshoot ([1]; 30 µM) was 33 ± 1 mV, the RMP ([1]; 30 µM) was -94 ± 1 mV and the Vmax ([1]; 30 µM) was 209 ± 32 V/sec. It also gave an APA ([1]; 100 µM) of 127 ± 1 mV, an APD30 ([1]; 100 µM) of 102 ± 7 ms and an APD50 ([1]; 100 µM) of 165 ± 6 ms. It also gave an APD90 ([1]; 100 µM) of 214 ± 7 ms, an Overshoot ([1]; 100 µM) of 32 ± 1 mV and an RMP ([1]; 100 µM) of -94 ± 1 mV. The Vmax ([1]; 100 µM) was 207 ± 34 V/sec, the action potential duration ([1]; 3 to 100 µM) was “dose-dependent increase in action potential duration” and the “resting membrane potential, action potential amplitude, Vmax” value [1] was “did not change”. The “ventricular fibrillation during the ischemic period” value ([2]; 3.0 mg/kg) was “one dog”, the “incidence of ventricular fibrillation” value ([2]; 10.0 mg/kg (only the high dose), ischemia and reperfusion) was “reduced the incidence of ventricular fibrillation” and the PR (anesthetized dog; 3.0 mg/kg i.v., After drug, before drug 105 ± 5) was 118 ± 7 ms. The QT (anesthetized dog; 3.0 mg/kg i.v., After drug, before drug 238 ± 11) was 269 ± 12 ms, the QTc (anesthetized dog; 3.0 mg/kg i.v., After drug, before drug 384 ± 8) was 397 ± 11 msec/sec^½ and the PR (anesthetized dog; 3.0 mg/kg i.v., Ischemia (45 min), before drug 105 ± 5) was 111 ± 7 ms. For the same molecule, the QT (anesthetized dog; 3.0 mg/kg i.v., Ischemia (45 min), before drug 238 ± 11) was 264 ± 7 ms, the QTc (anesthetized dog; 3.0 mg/kg i.v., Ischemia (45 min), before drug 384 ± 8) was 400 ± 8 msec/sec^½ and the PR (anesthetized dog; 3.0 mg/kg i.v., reperfusion (60 min), before drug 105 ± 5) was 112 ± 5 ms. It also gave a QT (anesthetized dog; 3.0 mg/kg i.v., reperfusion (60 min), before drug 238 ± 11) of 251 ± 11 ms, a QTc (anesthetized dog; 3.0 mg/kg i.v., reperfusion (60 min), before drug 384 ± 8) of 392 ± 16 msec/sec^½ and a PR (anesthetized dog; 10.0 mg/kg i.v., After drug, before drug 109 ± 5) of 115 ± 5 ms. The QT (anesthetized dog; 10.0 mg/kg i.v., After drug, before drug 251 ± 11) was 337 ± 19 ms, the QTc (anesthetized dog; 10.0 mg/kg i.v., After drug, before drug 386 ± 3) was 440 ± 14 msec/sec^½ and the PR (anesthetized dog; 10.0 mg/kg i.v., Ischemia (45 min), before drug 109 ± 5) was 113 ± 5 ms. For the same molecule, the QT (anesthetized dog; 10.0 mg/kg i.v., Ischemia (45 min), before drug 251 ± 11) was 312 ± 14 ms, the QTc (anesthetized dog; 10.0 mg/kg i.v., Ischemia (45 min), before drug 386 ± 3) was 423 ± 10 msec/sec^½ and the PR (anesthetized dog; 10.0 mg/kg i.v., reperfusion (60 min), before drug 109 ± 5) was 113 ± 6 ms. The QT (anesthetized dog; 10.0 mg/kg i.v., reperfusion (60 min), before drug 251 ± 11) was 285 ± 11 ms, the QTc (anesthetized dog; 10.0 mg/kg i.v., reperfusion (60 min), before drug 386 ± 3) was 400 ± 8 msec/sec^½ and the heart rate (anesthetized dog; [3]) was “reduced heart rate in a dose-dependent manner”. For the same molecule, the “left ventricular dP/dtmax” value (anesthetized dog; [3]) was “reduction in the left ventricular dP/dtmax”, the “mean arterial and left ventricular pressure” value (anesthetized dog; [3]) was “only minimal changes” and the pressure rate product (anesthetized dog; [3]) was “reduced the pressure rate product”.

— patent EP0852142A1, “Diamines in the treatment of arrhythmia” (SMITHKLINE BEECHAM LABORATOIRES PHARMACEUTIQUES, priority 1992, dated 1993)
